# From PubChem BioAssay AID179 (DTP/NCI, 2004)
# Active and inactive are the calls of the source.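 How the source made its calls: active means compounds giving half or more protection of infected cells from virus-caused growth loss, again on retest; inactive means the rest.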
# Tested on: CEM cells HIV-1 protection, formazan growth assay
# Assay: NCI AIDS Antiviral Assay
# Details: for IC50: measured here: growth of uninfected CEM cells
# Outline: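 Protection of CEM cells against HIV-1 measured as cell growth via soluble formazan read-out, with five concentrations tested on both infected and uninfected cells; failure to protect may reflect toxicity.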
Compound,EC50 [µM],IC50 [µM],outcome
CCCC(=O)Nc1ccc(C2=NNC(=O)C3CC23)cc1 (configuration not stated),> 200,> 200,–
COC(CCC(C)C1OC23CC(OC(=O)CC(C(C)O)OC(=O)CC(O)(O2)C(C)CC3(C)C)C1C)c1cccc(O)c1 (configuration not stated),–,–,active
CC(C)CC(NC(=O)OCC[P+](c1ccccc1)(c1ccccc1)c1ccccc1)C(=O)O (configuration not stated),> 200,9.12,–
O=C(Nc1ccc(/C=C/c2ccc(NC(=O)c3cc(S(=O)(=O)O)c4cccnc4c3O)cc2S(=O)(=O)O)c(S(=O)(=O)O)c1)Nc1ccc(/C=C/c2ccc(NC(=O)c3cc(S(=O)(=O)O)c4cccnc4c3O)cc2S(=O)(=O)O)c(S(=O)(=O)O)c1,5.5,50.1,–
COc1ccc(/C(=N/NC(N)=O)C(c2ccc(OC)cc2)C2C(=O)Oc3ccccc32)cc1 (configuration not stated),> 30.2,> 30.2,–
N=C1SCC(=O)N1CCN1C(=N)SCC1=O,> 79.4,> 79.4,–
CC(C)C[S+]1C2=C([O-])CC(C)(C)CC2=Nc2ccccc21 (configuration not stated),> 200,> 200,–
COc1cc(/C=C(\C#N)C(=O)c2ccccc2)ccc1O,> 646,490,–
ON1CCc2c([nH]c3ccccc23)C1c1ccccc1Br (configuration not stated),–,–,inactive
[N-]=[N+]=NCCOCn1ccc(=O)[nH]c1=O,> 200,> 200,–
C[Si](C)(C)N1N=NC2C(=O)N(c3ccccc3)C(=O)C21 (configuration not stated),> 200,> 200,–
C=C(C)C1CCC2=CC(CC3(C)OC3C3=CC(C(=O)OC)=C(C1)O3)OC2=O (configuration not stated),> 47.9,> 47.9,–
Nc1ncnc2c1sc(=S)n2-c1ccccc1,> 52.5,> 52.5,–
N=C(N)SCCCON,> 200,> 200,–
O=C(O)CCSC(=S)Nc1ccc([N+](=O)[O-])cc1,–,–,inactive
CC(C)(C)c1ccc(CN2CCN(C(c3ccccc3)c3ccc(Cl)cc3)CC2)cc1 (configuration not stated),> 200,115,–
Cc1ccccc1[P+](Cc1ccccc1)(c1ccccc1C)c1ccccc1C,> 20,1.07,–
COC(=O)CCc1ccc(CCC(=O)OC)cc1,> 200,> 200,–
CC(C)(C)[Si](C)(C)OCC1OC(n2ccc(=O)[nH]c2=O)C(O[Si](C)(C)C(C)(C)C)[C@]12O[C@@H]2CO (some centres not stated),> 200,13.2,–
COc1cc(NC=O)c2c(c1)SCCC(=O)N2,> 200,> 200,–
O=C1c2c(O)cccc2C(C(=O)CCCC(=O)C2c3cccc(O)c3C(=O)c3c(O)cccc32)c2cccc(O)c21,> 4.79,0.794,–
CC1(C)CC(C2=NCCO2)CC(C)(C)N1,> 200,> 200,–
FC1(F)SC2CCCCCCCCCCC2C1(F)F (configuration not stated),> 200,91.2,–

Compound,EC50 [µM],IC50 [µM],outcome
COc1ccc(-c2coc3c4c(c5c(c3c2=O)OC(C)(C)CC5)OC(C)(C)C=C4)cc1OC,> 39.8,12.3,–
O=S(=O)(c1cc(Cl)ccc1Cl)N1CCN(S(=O)(=O)c2cc(Cl)ccc2Cl)CC1,> 200,> 200,–
O=C(O)C1Cc2ccccc2OC1=O (configuration not stated),> 200,> 200,–
C=C1CC(C)(COc2ccc3c(C)c(C)c(=O)oc3c2C)OC1=O (configuration not stated),> 2,0.891,–
CC[Si](CC)(CC)OC(C#N)c1ccc2c(c1)OCO2 (configuration not stated),–,–,inactive
C=CCN=C1NC(=O)C(CC(=O)Nc2ccc([N+](=O)[O-])cc2[N+](=O)[O-])S1 (configuration not stated),> 13.8,> 13.8,–
[C-]#[N+][C@@]1(C)CCC2C(C)CC[C@@H](C(=C)C)[C@@]23C=C(C)CC[C@H]31 (some centres not stated),> 200,138,–
N#C/C(=C\c1ccc(O)cc1)c1ccc([N+](=O)[O-])cc1,> 200,174,–
O=c1[nH]c2ccccc2c(=O)n1CCCN1CCN(c2cccc(Cl)c2)CC1,> 200,50.1,–
C=CCCC12CCCC(=O)C1Sc1ccccc12 (configuration not stated),> 138,91.2,–
COc1cc2c(c(OC)c1O)C(=O)CC(c1ccc(O)cc1)O2 (configuration not stated),> 200,21.9,–
COc1ccc(NCc2cccc3c(=O)c4ccc(Cl)cc4oc23)cc1,3.47,25.1,–
CCOC(=O)c1c(C(=O)OC)nc2n1-c1ccccc1OC2,> 832,64.6,–
Cc1ccc(N=C2C(=Nc3ccc(C)cc3)N(c3ccc(C)cc3)C(=S)N2C(=O)c2ccccc2)cc1,> 200,> 200,–
CC(=O)NS(=O)(=O)c1ccc(NCc2cccc3c(=O)c4ccc(Cl)cc4oc23)cc1,> 200,3.16,–
COc1nc(N=[N+]=[N-])nc(-c2c(OC)ccc3ccccc23)n1,> 200,47.9,–
O=C1/C(=C/c2ccc(Cl)cc2)NC(=S)N1CN1CCCCC1,> 200,28.2,–
Cc1nc2[nH]ncn2c(=O)c1CCCl,> 200,34.7,–
O=[N+]([O-])c1ccccc1/C=C/c1ccccn1,> 16.6,> 16.6,–
COC1/C=C/OC2(C)Oc3c(C)c(O)c4c(O)c(c(/C=N/OC/C=C(\C)CCC=C(C)C)c(O)c4c3C2=O)NC(=O)C(C)=C/C=C/C(C)C(O)C(C)C(O)C(C)C(OC(C)=O)C1C (configuration not stated),> 200,4.47,–
O=S(=O)(c1ccccc1)C1CC(c2ccccc2)N(c2ccccc2)O1 (configuration not stated),> 27.5,> 27.5,–
COc1ccc(-c2oc3ccc(C)cc3c(=O)c2O)cc1,> 52.5,> 52.5,–
CCN(CC)C(=S)SS(=O)(=O)c1ccc(N)cc1,> 200,56.2,–

Compound,EC50 [µM],IC50 [µM],outcome
CC1CCN(C(C)(C)C)P(=O)(Cc2ccccc2)O1 (configuration not stated),–,–,inactive
CC(C)CN(CC(=O)Nc1cccc(Cl)c1)CC(C)C,> 200,141,–
CC1=C\[C@@H](O)CC(=O)Cc2nc(co2)C(=O)N2CCC=C2C(=O)O[C@H](C(C)C)[C@H](C)/C=C/C(=O)NC\C=C\1,> 9.77,> 9.77,–
CCN(CC)c1oc(N(CC)CC)c(C(=O)Nc2ccccn2)c(=O)c1C(C)=O,> 631,251,–
O=C(O)/C(O)=C1/C=C(c2ccccc2)c2ccccc21,–,–,inactive
CC(C)(C)[Si](C)(C)Oc1cc(CO)cc2c1cc(=N)o[n+]2[O-],> 200,10.2,–
O=c1c(Cl)c(Cl)cnn1CCCl,> 1100,1.29,–
Cn1c(=O)nc2n(-c3cccc(Cl)c3)c3ccccc3nc-2c1=O,–,–,inactive
CCOC(=O)C(C)(C(=O)OCC)/C(Cl)=C\Cl,> 200,> 200,–
COc1ccc(OP2OCC(C)O2)cc1 (configuration not stated),> 1100,46.8,–
CC(=O)O[C@H]1[C@@H](OC2CCCC2(c2ccccc2)c2ccccc2)O[N+]([O-])=C[C@@H]1c1ccccc1 (some centres not stated),> 200,3.09,–
O=C(c1ccc(Cl)cc1)N(C(=S)N1CCN(c2ccccc2)CC1)c1ccccc1,> 12,11.2,–
CC[C@]1(Cc2ccc(OC)c(OC)c2)C=[N+]([O-])O[C@H](OCc2ccccc2)[C@@H]1OC(C)=O,> 200,38,–
CCOP(=O)(CP(=O)(OCC)OCC)OCC.[Cl][Sn]([Cl])([c]1ccccc1)[c]1ccccc1,> 11.5,0.603,–
COc1ccc(C(c2c(O)c3ccccc3oc2=O)N2CCOCC2)c(OC)c1 (configuration not stated),> 200,91.2,–
Cc1cc(=O)oc2c(CNC(C(=O)O)C(C)O)c(O)ccc12 (configuration not stated),> 200,> 200,–
NCCCNCCSSCCNCCCN,> 200,10.5,–
COc1cc2c[n+](C)c3c4cc(OC)c(OC(C)C)cc4ccc3c2cc1OC,> 295,13.5,–
O=C1C2CCN(CC2)C1CNC1(c2ccccc2)CCCCC1 (configuration not stated),–,–,inactive
CCN(CC)CCOC(=O)c1[nH]c(=O)[nH]c(=O)c1N,> 200,> 200,–
Cc1ccc2nc3c(C)cc(=O)cc-3sc2c1,> 77.6,50.1,–
COc1ccc(CCN2C(=O)C(=O)c3ccccc32)cc1OC,> 83.2,47.9,–
CCN(CC)C1=NS(=O)(=O)c2ccccc2C(SC)=C1C,> 275,> 275,–

Compound,EC50 [µM],IC50 [µM],outcome
COC(=O)[C@@H]1c2[nH]c3ccccc3c2C[C@@H]2c3ccccc3NC(=O)[C@@H]21,> 42.7,> 42.7,–
COC(=O)CNCc1cc(N(C)C)cc(CNCC(=O)OC)n1,> 200,> 200,–
Cc1noc(NS(=O)(=O)c2ccc(Nc3nc(CC(=O)Nc4ccccc4)cs3)cc2)c1C,> 200,28.2,–
CC(=O)CCC1(c2ccccc2)OC(=O)C(C#N)=C1c1ccccc1 (configuration not stated),–,–,inactive
Cc1ccccc1NC(=O)C1C(=O)N(c2ccccc2C)C(=O)/C1=N\N (configuration not stated),–,–,inactive
O=C1c2ccc(O)cc2OC(c2ccc(O)c(O)c2)C1O (configuration not stated),> 200,93.3,–
Cc1nnc(N)nc1/C=C\c1ccc(Cl)cc1Cl,> 200,50.1,–
O=[N+]([O-])c1ccc(Cl)cc1C1ON=C(c2ccccc2)N1C12CC3CC(CC(C3)C1)C2 (configuration not stated),> 100,> 100,–
O=c1[nH]c(=O)n(C2CC(O)C(CO)O2)c2nc3ccc4ccccc4c3nc12 (configuration not stated),> 100,13.2,–
CCc1ccccc1NC(=O)CCc1nc(=S)[nH][nH]1,> 912,> 912,–
N=C(N)SSC(=N)N,70.8,> 100,–
Cc1c(-c2ccccc2)sc(N)c1C#N,–,–,inactive
CCCCCCCCC1=C(OC)C(=O)c2ccc(C)nc2C1=O,–,–,inactive
O=C(/C=C/c1cccnc1)c1ccccc1,> 123,7.59,–
Cn1nc(S(N)(=O)=O)s/c1=N/C(N)=S,> 200,> 200,–
CCc1cccc(C(C)CC)c1NC(=O)C(=O)Cc1nc2ccccc2o1 (configuration not stated),> 347,> 347,–
Nc1[nH]c(=S)nc2nc3c(c(-c4ccccc4)c12)CCCC3,> 50.1,> 50.1,–
Clc1ccc(-n2cnn3c(-c4ccccc4)ncc23)cc1,> 100,> 100,–
COC(=O)N/N=C(\c1ccccc1)c1ccc(OC)cc1,> 200,112,–
Cc1c(C)c2cc3c(=O)c(CCl)coc3c(C)c2oc1=O,> 17,> 17,–
CC(=O)N/N=C1\CC(C)(C)C2CCC1C2 (configuration not stated),–,–,inactive
